Reference: ChEMBL document CHEMBL6182876, “Design, synthesis and preliminary structure-activity relationship of 2-iminothiazolidine-4-one derivatives against Schistosoma japonicum in vitro and in vivo” (Eur J Med Chem, 2025)

How the values were obtained:
Schistosoma japonicum [1] = assay: Anti-schistosomal activity against adult Schistosoma japonicum assessed as worm mortality at 100 uM measured at 48 hrs relative to control; assay type: functional
Schistosoma japonicum [2] = assay: Anti-schistosomal activity against adult Schistosoma japonicum assessed as worm mortality at 100 uM measured at 8 hrs relative to control; assay type: functional
Schistosoma japonicum [3] = assay: Anti-schistosomal activity against adult Schistosoma japonicum assessed as worm mortality at 100 uM measured at 4 hrs relative to control; assay type: functional
Schistosoma japonicum [4] = assay: Anti-schistosomal activity against adult Schistosoma japonicum assessed as worm mortality at 100 uM measured at 12 hrs relative to control; assay type: functional
Schistosoma japonicum [5] = assay: Anti-schistosomal activity against adult Schistosoma japonicum assessed as worm mortality at 100 uM measured at 72 hrs relative to control; assay type: functional
Schistosoma japonicum [6] = assay: Anti-schistosomal activity against adult Schistosoma japonicum assessed as worm mortality at 100 uM measured at 24 hrs relative to control; assay type: functional
Schistosoma japonicum [7] = assay: Anti-schistosomal activity against adult Schistosoma japonicum measured at 72 hrs; assay type: functional, organism-based

SMILES | mortality at 100 µM (Schistosoma japonicum [1]) [%] | mortality at 100 µM (Schistosoma japonicum [2]) [%] | mortality at 100 µM (Schistosoma japonicum [3]) [%] | mortality at 100 µM (Schistosoma japonicum [4]) [%] | mortality at 100 µM (Schistosoma japonicum [5]) [%] | mortality at 100 µM (Schistosoma japonicum [6]) [%] | IC50 (Schistosoma japonicum [7]) [µM]
CN1CCN(CCCN2C(=O)/C(=C/c3cccc(Cl)c3)S/C2=N\c2ccc(C(F)(F)F)cc2)CC1 | 100 | 40 | 20 | 70 | 100 | 100 | 
Cc1ccccc1/C=C1\S/C(=N\c2ccc(C(F)(F)F)cc2)N(CCCN2CCN(C)CC2)C1=O | 10 | 0 | 0 | 0 | 30 | 0 | 
CCOC(=O)/C=C1\S/C(=N\c2ccccc2C(F)(F)F)N(CCCN2CCN(C)CC2)C1=O | 100 | 40 | 0 | 100 | 100 | 100 | 33.2
CCOC(=O)/C=C1\S/C(=N\c2ccc(Cl)c(Cl)c2)N(CCCN2CCN(C)CC2)C1=O | 100 | 40 | 0 | 100 | 100 | 100 | 39.3
CCOC(=O)/C=C1\S/C(=N\c2ccccc2)N(CCCN2CCOCC2)C1=O | 0 | 0 | 0 | 0 | 100 | 0 | 91.3
CCOC(=O)/C=C1\S/C(=N\c2ccc(Cl)cc2)N(CCCN2CCN(C)CC2)C1=O | 100 | 40 | 0 | 80 | 100 | 100 | 41.8
CCOC(=O)/C=C1\S/C(=N\c2ccc(Br)cc2)N(CCCN2CCN(C)CC2)C1=O | 100 | 30 | 0 | 60 | 100 | 100 | 35.4
CCOC(=O)/C=C1\S/C(=N\c2ccccc2)N(CCN2CCCCC2)C1=O | 10 | 0 | 0 | 0 | 50 | 0 | > 100
CN1CCN(CCCN2C(=O)/C(=C/c3ccccc3Cl)S/C2=N\c2ccc(C(F)(F)F)cc2)CC1 | 0 | 0 | 0 | 0 | 40 | 0 | 
CCOC(=O)/C=C1\S/C(=N\c2ccccc2)N(CCCN2CCCC2)C1=O | 30 | 0 | 0 | 0 | 100 | 20 | 77.9
CCOC(=O)/C=C1\S/C(=N\c2ccccc2Br)N(CCCN2CCN(C)CC2)C1=O | 100 | 20 | 0 | 60 | 100 | 100 | 30.9
CCOC(=O)/C=C1\S/C(=N\c2ccccc2)N(CCN(C)C)C1=O | 0 | 0 | 0 | 0 | 10 | 0 | > 100
Cc1ccc(/C=C2\S/C(=N\c3ccc(C(F)(F)F)cc3)N(CCCN3CCN(C)CC3)C2=O)cc1 | 70 | 0 | 0 | 0 | 100 | 30 | 
COc1ccc(/C=C2\S/C(=N\c3ccc(C(F)(F)F)cc3)N(CCCN3CCN(C)CC3)C2=O)cc1 | 20 | 0 | 0 | 0 | 60 | 0 | 
CN1CCN(CCCN2C(=O)/C(=C/c3ccc([N+](=O)[O-])cc3)S/C2=N\c2ccc(C(F)(F)F)cc2)CC1 | 30 | 0 | 0 | 0 | 70 | 0 | 
CN1CCN(CCCN2C(=O)/C(=C/c3ccccc3F)S/C2=N\c2ccc(C(F)(F)F)cc2)CC1 | 0 | 0 | 0 | 0 | 20 | 0 | 
CN1CCN(CCCN2C(=O)/C(=C/c3ccccc3)S/C2=N\c2ccc(C(F)(F)F)cc2)CC1 | 20 | 0 | 0 | 0 | 30 | 10 | 

SMILES | mortality at 100 µM (Schistosoma japonicum [1]) [%] | mortality at 100 µM (Schistosoma japonicum [2]) [%] | mortality at 100 µM (Schistosoma japonicum [3]) [%] | mortality at 100 µM (Schistosoma japonicum [4]) [%] | mortality at 100 µM (Schistosoma japonicum [5]) [%] | mortality at 100 µM (Schistosoma japonicum [6]) [%] | IC50 (Schistosoma japonicum [7]) [µM]
CN1CCN(CCCN2C(=O)/C(=C/c3ccc(Cl)cc3)S/C2=N\c2ccc(C(F)(F)F)cc2)CC1 | 100 | 0 | 0 | 0 | 100 | 100 | 
COc1cccc(/C=C2\S/C(=N\c3ccc(C(F)(F)F)cc3)N(CCCN3CCN(C)CC3)C2=O)c1 | 100 | 0 | 0 | 20 | 100 | 70 | 
CCOC(=O)/C=C1\S/C(=N\C)N(CCCN2CCN(C)CC2)C1=O | 0 | 0 | 0 | 0 | 0 | 0 | > 100
CCOC(=O)/C=C1\S/C(=N\c2ccc(F)cc2)N(CCCN2CCN(C)CC2)C1=O | 80 | 0 | 0 | 0 | 100 | 30 | 42.8
CCOC(=O)/C=C1\S/C(=N\c2ccccc2)N(CCN2CCC(Cc3ccccc3)CC2)C1=O | 20 | 0 | 0 | 0 | 70 | 0 | 91.3
CCOC(=O)/C=C1\S/C(=N\c2cc(C(F)(F)F)cc(C(F)(F)F)c2)N(CCCN2CCN(C)CC2)C1=O | 100 | 40 | 0 | 100 | 100 | 100 | 36.4
CCOC(=O)/C=C1\S/C(=N\c2ccccc2)N(CCN2CCOCC2)C1=O | 40 | 0 | 0 | 0 | 60 | 0 | 93.1
CCOC(=O)/C=C1\S/C(=N\c2ccc(CC)cc2)N(CCCN2CCN(C)CC2)C1=O | 100 | 0 | 0 | 10 | 100 | 60 | 
COc1ccccc1/C=C1\S/C(=N\c2ccc(C(F)(F)F)cc2)N(CCCN2CCN(C)CC2)C1=O | 10 | 0 | 0 | 0 | 70 | 0 | 
CCOC(=O)/C=C1\S/C(=N\c2ccc([N+](=O)[O-])cc2)N(CCCN2CCN(C)CC2)C1=O | 100 | 0 | 0 | 0 | 100 | 10 | 72
CCOC(=O)/C=C1\S/C(=N\c2cccc(Br)c2)N(CCCN2CCN(C)CC2)C1=O | 100 | 30 | 0 | 80 | 100 | 100 | 35.1
CCOC(=O)/C=C1\S/C(=N\c2ccc(OC)cc2)N(CCCN2CCN(C)CC2)C1=O | 10 | 0 | 0 | 0 | 30 | 0 | 95.7
Cc1cc(/C=C2\S/C(=N\c3ccc(C(F)(F)F)cc3)N(CCCN3CCN(C)CC3)C2=O)ccc1F | 20 | 0 | 0 | 0 | 30 | 10 | 
CCOC(=O)/C=C1\S/C(=N\c2ccccc2)N(CCN2CCCC2)C1=O | 50 | 0 | 0 | 0 | 50 | 0 | > 100
CN1CCN(CCCN2C(=O)CS/C2=N\c2ccc(C(F)(F)F)cc2)CC1 | 0 | 0 | 0 | 0 | 10 | 0 | 
CN1CCN(CCCN2C(=O)/C(=C/c3cccc(F)c3)S/C2=N\c2ccc(C(F)(F)F)cc2)CC1 | 30 | 0 | 0 | 0 | 30 | 0 | 
Cc1cccc(/C=C2\S/C(=N\c3ccc(C(F)(F)F)cc3)N(CCCN3CCN(C)CC3)C2=O)c1 | 90 | 0 | 0 | 0 | 100 | 20 | 
